Results as given in ChEMBL document CHEMBL1151244, “Synthesis of A-seco derivatives of betulinic acid with cytotoxic activity” (J Nat Prod, 2004).

Experiments:
Assay type in all cases: functional, cell-based
K562 [1] = assay: Cytotoxicity against paclitaxel-resistant human K562 cells after 72 hrs by MTT assay; conditions: K562, 72 h
CCRF-CEM = assay: Cytotoxicity against human CEM cells after 72 hrs by MTT assay
K562 [2] = assay: Cytotoxicity against human K562 cells after 72 hrs by MTT assay; conditions: K562, 72 h
HT-29 = assay: Cytotoxicity against human HT-29 cells after 72 hrs by MTT assay; conditions: HT-29, 72 h
PC-3 = assay: Cytotoxicity against human PC3 cells after 72 hrs by MTT assay; conditions: PC-3, 72 h
DU-145 = assay: Cytotoxicity against human DU145 cells after 72 hrs by MTT assay; conditions: DU-145, 72 h
SK-MEL-2 = assay: Cytotoxicity against human SK-MEL-2 cells after 72 hrs by MTT assay; conditions: SK-MEL-2, 72 h
MCF7 = assay: Cytotoxicity against human MCF7 cells after 72 hrs by MTT assay; conditions: MCF7, 72 h
A549 = assay: Cytotoxicity against human A549 cells after 72 hrs by MTT assay; conditions: A549, 72 h

SMILES	IC50 (K562 [1])	IC50 (CCRF-CEM)	IC50 (K562 [2])	IC50 (HT-29)	IC50 (PC-3)	IC50 (DU-145)	IC50 (SK-MEL-2)	IC50 (MCF7)	IC50 (A549)
C=C(C)[C@@H]1CC[C@]2(C(=O)OC)CC[C@]3(C)[C@H](CC[C@@H]4[C@@](C)(CC(=O)OC)[C@H](C(C)(C)C(=O)OC)CC[C@]43C)[C@@H]12	76 µM	250 µM	104 µM	99 µM	245 µM				
C=C(C)[C@@H]1CC[C@]2(C(=O)O)CC[C@]3(C)[C@H](CC[C@@H]4[C@@]5(C)C=C(OC(C)=O)C(=O)C(C)(C)[C@@H]5CC[C@]43C)[C@@H]12	16 µM	20 µM	5 µM	7 µM	11 µM	18 µM	24 µM	17 µM	11 µM
C=C(C)[C@@H]1CC[C@]2(C(=O)O)CC[C@]3(C)[C@H](CC[C@@H]4[C@@]5(C)CC[C@H](OC(C)=O)C(C)(C)[C@@H]5CC[C@]43C)[C@@H]12	19 µM	200 µM	18 µM	24 µM	17 µM				
C=C(C)[C@@H]1CC[C@]2(C(=O)OC)CC[C@]3(C)[C@H](CC[C@@H]4[C@@]5(C)CC[C@H](OC(C)=O)C(C)(C)[C@@H]5CC[C@]43C)[C@@H]12	250 µM	16 µM	250 µM	250 µM	250 µM				
C=C(C)[C@@H]1CC[C@]2(CO)CC[C@]3(C)[C@H](CC[C@@H]4[C@@](C)(CCO)[C@H](C(C)(C)CO)CC[C@]43C)[C@@H]12	11 µM	20 µM	9 µM	11 µM	49 µM				
C=C(C)[C@@H]1CC[C@]2(C(=O)OC(C)=O)CC[C@]3(C)[C@H](CC[C@@H]4[C@@]5(C)CC(=O)OC(=O)C(C)(C)[C@@H]5CC[C@]43C)[C@@H]12		6 µM							
C=C(C)[C@@H]1CC[C@]2(C(=O)O)CC[C@]3(C)[C@H](CC[C@@H]4[C@@]5(C)C=C(O)C(=O)C(C)(C)[C@@H]5CC[C@]43C)[C@@H]12	11 µM	4 µM	6 µM	6 µM	10 µM	23 µM	23 µM	14 µM	10 µM
C=C(C)[C@@H]1CC[C@]2(C(=O)OC)CC[C@]3(C)[C@H](CC[C@@H]4[C@@]5(C)CC(=O)OC(=O)C(C)(C)[C@@H]5CC[C@]43C)[C@@H]12	12 µM	7 µM	29 µM	12 µM	89 µM				
C=C(C)[C@@H]1CC[C@]2(C(=O)OC)CC[C@]3(C)[C@H](CC[C@@H]4[C@@]5(C)C=C(OC)C(=O)C(C)(C)[C@@H]5CC[C@]43C)[C@@H]12	10 µM	5 µM	11 µM	19 µM	20 µM				
C=C(C)[C@@H]1CC[C@]2(C(=O)O)CC[C@]3(C)[C@H](CC[C@@H]4[C@@]5(C)CCC(=O)C(C)(C)[C@@H]5CC[C@]43C)[C@@H]12 [BETUNOLIC ACID]	17 µM	17 µM				36 µM		29 µM	
C=C(C)[C@@H]1CC[C@]2(C(=O)OC(=O)[C@]34CC[C@@H](C(=C)C)[C@@H]3[C@H]3CC[C@@H]5[C@@]6(C)CC[C@H](OC(C)=O)C(C)(C)[C@@H]6CC[C@@]5(C)[C@]3(C)CC4)CC[C@]3(C)[C@H](CC[C@@H]4[C@@]5(C)CC[C@H](OC(C)=O)C(C)(C)[C@@H]5CC[C@]43C)[C@@H]12	242 µM	240 µM	104 µM	173 µM	187 µM				
C=C(C)[C@@H]1CC[C@]2(C(=O)O)CC[C@]3(C)[C@H](CC[C@@H]4[C@@](C)(CC(=O)O)[C@H](C(C)(C)C(=O)O)CC[C@]43C)[C@@H]12	250 µM	250 µM	145 µM	219 µM	169 µM				
C=C(C)[C@@H]1CC[C@]2(C(=O)O)CC[C@]3(C)[C@H](CC[C@@H]4[C@@]5(C)[C@@H](O)OC(=O)C(C)(C)[C@@H]5CC[C@]43C)[C@@H]12	81 µM	96 µM	81 µM	58 µM	79 µM				
C=C(C)[C@@H]1CC[C@]2(C(=O)O)CC[C@]3(C)[C@H](CC[C@@H]4[C@@]5(C)CC(=O)OC(=O)C(C)(C)[C@@H]5CC[C@]43C)[C@@H]12		101 µM							
C=C(C)[C@@H]1CC[C@]2(C(=O)OC)CC[C@]3(C)[C@H](CC[C@@H]4[C@@]5(C)CC[C@H](O)C(C)(C)[C@@H]5CC[C@]43C)[C@@H]12 [METHYL BETULINATE]	65 µM	150 µM	71 µM	61 µM	109 µM				
C=C(C)[C@@H]1CC[C@]2(C(=O)O)CC[C@]3(C)[C@H](CC[C@@H]4[C@@]5(C)CC[C@H](O)C(C)(C)[C@@H]5CC[C@]43C)[C@@H]12 [BETULINIC ACID]	112 µM	27 µM	56 µM	89 µM	91 µM	196 µM	21 µM	143 µM	146 µM
C=C(C)[C@@H]1CC[C@]2(C(=O)OC)CC[C@]3(C)[C@H](CC[C@@H]4[C@@]5(C)C=C(OC(C)=O)C(=O)C(C)(C)[C@@H]5CC[C@]43C)[C@@H]12	25 µM	91 µM	60 µM	46 µM	98 µM				
C=C(C)[C@@H]1CC[C@]2(C(=O)OC)CC[C@]3(C)[C@H](CC[C@@H]4[C@@]5(C)C=C(O)C(=O)C(C)(C)[C@@H]5CC[C@]43C)[C@@H]12	8 µM	23 µM	8 µM	6 µM	10 µM	9 µM	11 µM	6 µM	11 µM
C=C(C)[C@@H]1CC[C@]2(C(=O)OC(C)=O)CC[C@]3(C)[C@H](CC[C@@H]4[C@@]5(C)CC[C@H](OC(C)=O)C(C)(C)[C@@H]5CC[C@]43C)[C@@H]12	108 µM	22 µM	88 µM	110 µM	93 µM				
C=C(C)[C@@H]1CC[C@]2(C(=O)OC)CC[C@]3(C)[C@H](CC[C@@H]4[C@@](C)(CC(=O)O)[C@H](C(C)(C)C(=O)O)CC[C@]43C)[C@@H]12	75 µM	113 µM	77 µM	88 µM	63 µM				
C=C(C)[C@@H]1CC[C@]2(COC(C)=O)CC[C@]3(C)[C@H](CC[C@@H]4[C@@](C)(CCOC(C)=O)[C@H](C(C)(C)COC(C)=O)CC[C@]43C)[C@@H]12		250 µM							
C=C(C)[C@@H]1CC[C@]2(C(=O)OC)CC[C@]3(C)[C@H](CC[C@@H]4[C@@]5(C)[C@@H](O)OC(=O)C(C)(C)[C@@H]5CC[C@]43C)[C@@H]12	85 µM	250 µM	119 µM	65 µM	116 µM				
C=C(C)[C@@H]1CC[C@]2(C(=O)OC)CC[C@]3(C)[C@H](CC[C@@H]4[C@@]5(C)CCC(=O)C(C)(C)[C@@H]5CC[C@]43C)[C@@H]12 [METHYL BETULONATE]	250 µM		239 µM	250 µM	250 µM				
